Drawing on ChEMBL document CHEMBL1125950, “Synthesis, siderophore, and antimicrobial evaluation of a spermidine-based tricatecholate siderophore and carbacephalosporin conjugate” (1991), this text covers Zone of stimulation for 7 compounds.

Common to all, as to type: functional
Experiment [1] has as its system Escherichia coli. The experiment is described as follows: Compound was evaluated for zone of stimulation of growth in Escherichia coli RWB18 at a concentration of 5 nM.
In experiment [2] the test system is Escherichia coli. The experiment is described as follows: Compound was evaluated for zone of stimulation of growth in Escherichia coli RW193 at concentration of 25 nM.
The subject of experiment [3] is Escherichia coli. The experiment is described as follows: Compound was evaluated for zone of stimulation of growth in Escherichia coli X580 at concentration of 25 nM.
The test system of experiment [4] is Escherichia coli. The experiment can be described thus: Compound was evaluated for zone of stimulation of growth in Escherichia coli X580 at concentration of 5 nM.
In experiment [5] the test system is Escherichia coli. The experiment can be described thus: Compound was evaluated for zone of stimulation of growth in Escherichia coli RWB18 at a concentration of 25 nM.
Experiment [6] concerns Escherichia coli. The experiment is described as follows: Compound was evaluated for zone of stimulation of growth in Escherichia coli RW193 at concentration of 5 nM.

On to `O=C(CCC(=O)N(CCCCNC(=O)c1cccc(O)c1O)CCCNC(=O)c1cccc(O)c1O)NCCCC[C@H](NC(=O)c1cccc(O)c1O)C(=O)O` (stereo in doubt; 7), for which the Zone of stimulation in experiment [1] came out at 24 mm; in experiment [2] it was 24 mm; in experiment [3], 20 mm.

Consider `O=C(N[C@H]1COC(=O)[C@@H](NC(=O)c2cccc(O)c2O)COC(=O)[C@@H](NC(=O)c2cccc(O)c2O)COC1=O)c1cccc(O)c1O` (stereo in doubt; form 1) [ENTEROBACTIN], for which the figures for the Zone of stimulation in experiment [4] and in experiment [3] were 24 mm and 38 mm, respectively.

Consider `O=C(CCC(=O)N(CCCCNC(=O)c1cccc(O)c1O)CCCNC(=O)c1cccc(O)c1O)NCCCC[C@H](NC(=O)c1cccc(O)c1O)C(=O)N[C@@H]1C(=O)N2C(C(=O)O)=C(Cl)CC[C@H]12` (stereo in doubt; 8), for which the Zone of stimulation came out at 10 mm in experiment [1], 18 mm in experiment [2], 16 mm in experiment [5] and 0 mm in experiment [3].

With `O=C(CCC(=O)N(CCCCNC(=O)c1cccc(O)c1O)CCCNC(=O)c1cccc(O)c1O)NCCCC[C@H](NC(=O)c1cccc(O)c1O)C(=O)O` (stereo in doubt), the Zone of stimulation in experiment [1] is 16 mm; in experiment [6], 22 mm; in experiment [2], 28 mm; in experiment [5], 24 mm; in experiment [3], 22 mm.

`O=C(O)CCC(=O)N(CCCCNC(=O)c1cccc(O)c1O)CCCNC(=O)c1cccc(O)c1O` displayed a Zone of stimulation in experiment [5] of 24 mm.

Turning to `O=C(N[C@H]1COC(=O)[C@@H](NC(=O)c2cccc(O)c2O)COC(=O)[C@@H](NC(=O)c2cccc(O)c2O)COC1=O)c1cccc(O)c1O` (stereo in doubt; form 2) [ENTEROBACTIN], the values for the Zone of stimulation in experiment [4] and in experiment [3] were 30 mm and 40 mm, respectively.

Take `O=C(CCC(=O)N(CCCCNC(=O)c1cccc(O)c1O)CCCNC(=O)c1cccc(O)c1O)NCCCC[C@H](NC(=O)c1cccc(O)c1O)C(=O)N[C@@H]1C(=O)N2C(C(=O)O)=C(Cl)CC[C@H]12` (stereo in doubt): the Zone of stimulation in experiment [1] worked out at 12 mm; in experiment [6] it was 12 mm; in experiment [5] it was 20 mm; in experiment [3] it was 12 mm.
